Here are results for 14 compounds from US8440684B2, “Polycyclic pyrrolidine-2,5-dione derivatives as -formyl peptide receptor like-1 (FPRL-1) receptor modulators” (Allergan, Inc., priority 2011, dated 2013).

In this experiment the target is T1, FPRL1 (Homo sapiens, UniProt P25090).
T1 construct: expressed in transfected cells
T1 sequence (P25090 1-351): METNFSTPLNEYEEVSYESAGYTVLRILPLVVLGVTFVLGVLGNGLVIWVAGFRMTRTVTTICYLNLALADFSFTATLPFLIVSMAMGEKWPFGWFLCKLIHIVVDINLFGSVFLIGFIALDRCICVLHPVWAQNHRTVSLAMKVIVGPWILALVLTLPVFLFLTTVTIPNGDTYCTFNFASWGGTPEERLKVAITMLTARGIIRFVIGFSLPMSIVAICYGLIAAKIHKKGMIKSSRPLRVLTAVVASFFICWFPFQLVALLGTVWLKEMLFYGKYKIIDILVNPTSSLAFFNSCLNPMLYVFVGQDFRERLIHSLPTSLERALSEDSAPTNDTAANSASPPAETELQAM
In words: compound-induced calcium activity on FLIPR Tetra in CHO-Ga16 cells stably expressing FPRL1. The class given is cell-based. Particulars: for FPRL1 (rel. eff.): relative efficacy; for EC50: tested 0.61 to 10,000 nM. Here is the method: CHO-Ga16 cells stably expressing FPRL1 were cultured in (F12, 10% FBS, 1% PSA, 400 μg/ml geneticin and 50 μg/ml hygromycin) and HEK-Gqi5 cells stable expressing FPR1 were cultured in (DMEM high glucose, 10% FBS, 1% PSA, 400 μg/ml geneticin and 50 μg/ml hygromycin). In general, the day before the experiment, 18,000 cells/well were plated in a 384-well clear bottom poly-d-lysine coated plate. The following day the screening compound-induced calcium activity was assayed on the FLIPR^Tetra. The drug plates were prepared in 384-well microplates using the EP3 and the MultiPROBE robotic liquid handling systems. Compounds were tested at concentrations ranging from 0.61 to 10,000 nM. Results are expressed as EC50 (nM) and efficacy values.

Broadly, the EC50 is the concentration that produces a half-maximal response. As for `O=C(CN1C(=O)C2C(C1=O)C1CCC2C12CC2)Nc1ccc(Br)cc1` (stereo not shown) [Compound 1, N-(4-Bromophenyl)-2-(1,3-dioxooctahydro-2H-spiro[2-aza-4,7-methanoisoindole-8,1′-cyclopropan]-2-yl)acetamide], the “FPRL1 (rel. eff.)” value is listed as “(0.9)” and the 50% effective concentration (EC50) stood at 0.118 µM.

Consider `CSc1ccc(NC(=O)CN2C(=O)C3C(C2=O)C2CCC3C23CC3)cc1` (stereo not shown) [Compound 2, 2-(1,3-dioxooctahydro-2H-spiro[2-aza-4,7-methanoisoindole-8,1′-cyclopropan]-2-yl)-N-[4-(methylthio)phenyl]acetamide], for which the “FPRL1 (rel. eff.)” value was “(1.0)” and the concentration giving a half-maximal response (EC50) is 0.336 µM.

With `O=C(CN1C(=O)C2C(C1=O)C1CCC2C12CC2)Nc1ccc(Cl)cc1` (stereo not shown) [Compound 3, N-(4-chlorophenyl)-2-(1,3-dioxooctahydro-2H-spiro[2-aza-4,7-methanoisoindole-8,1′-cyclopropan]-2-yl)acetamide], the “FPRL1 (rel. eff.)” value is on record as “(1.0)” and the EC50 amounted to 2.05 µM.

Turning to `CS(=O)(=O)c1ccc(NC(=O)CN2C(=O)C3C(C2=O)C2CCC3C23CC3)cc1` (stereo not shown) [Compound 4, 2-(1,3-dioxooctahydro-2H-spiro[2-aza-4,7-methanoisoindole-8,1′-cyclopropan]-2-yl)-N-[4-(methylsulfonyl)phenyl]acetamide], the “FPRL1 (rel. eff.)” value is “(0.72)” and the concentration for a half-maximal effect (EC50) is 3.46 µM.

With `O=C(CN1C(=O)C2C(C1=O)C1CCC2C12CC2)Nc1ccc(I)cc1` (stereo not shown) [Compound 5, 2-(1,3-dioxooctahydro-2H-spiro[2-aza-4,7-methanoisoindole-8,1′-cyclopropan]-2-yl)-N-(4-iodophenyl)acetamide], the “FPRL1 (rel. eff.)” value is “(0.86)” and the 50% effective concentration (EC50) was determined as 2.65 µM.

In the case of `CCc1ccc(NC(=O)CN2C(=O)C3C(C2=O)C2CCC3C23CC3)cc1` (stereo not shown) [Compound 6, 2-(1,3-dioxooctahydro-2H-spiro[2-aza-4,7-methanoisoindole-8,1′-cyclopropan]-2-yl)-N-(4-ethylphenyl)acetamide], the “FPRL1 (rel. eff.)” value is “(0.91)” and the concentration giving a half-maximal response (EC50) stood at 1.15 µM.

For the compound `CC(=O)c1ccc(NC(=O)CN2C(=O)C3C(C2=O)C2CCC3C23CC3)cc1` (stereo not shown) [Compound 7, N-(4-acetylphenyl)-2-(1,3-dioxooctahydro-2H-spiro[2-aza-4,7-methanoisoindole-8,1′-cyclopropan]-2-yl)acetamide], the “FPRL1 (rel. eff.)” value was “(0.63)” and the concentration giving a half-maximal response (EC50) amounted to 7.83 µM.

With `O=C(CN1C(=O)C2C(C1=O)C1CCC2C12CC2)Nc1ccc(Cl)nc1` (stereo not shown) [Compound 8, N-(6-chloropyridin-3-yl)-2-(1,3-dioxooctahydro-2H-spiro[2-aza-4,7-methanoisoindole-8,1′-cyclopropan]-2-yl)acetamide], the “FPRL1 (rel. eff.)” value is “(0.86)” and the concentration for a half-maximal effect (EC50) is 2.51 µM.

Turning to `O=C(CN1C(=O)C2C(C1=O)C1CCC2C12CC2)Nc1ccc(F)cc1` (stereo not shown) [Compound 9, 2-(1,3-dioxooctahydro-2H-spiro[2-aza-4,7-methanoisoindole-8,1′-cyclopropan]-2-yl)-N-(4-fluorophenyl)acetamide], the “FPRL1 (rel. eff.)” value was “(0.9)” and the half-maximal effective concentration (EC50) amounted to 2.32 µM.

Consider `COc1ccc(NC(=O)CN2C(=O)C3C(C2=O)C2CCC3C23CC3)cc1` (stereo not shown) [Compound 10, 2-(1,3-dioxooctahydro-2H-spiro[2-aza-4,7-methanoisoindole-8,1′-cyclopropan]-2-yl)-N-(4-methoxyphenyl)acetamide], for which the “FPRL1 (rel. eff.)” value is recorded as “(1.0)” and the half-maximal effective concentration (EC50) was 0.267 µM.

Consider `CC(C(=O)Nc1ccc(Br)cc1)N1C(=O)C2C(C1=O)C1CCC2C12CC2` (stereo not shown) [Compound 11, N-(4-bromophenyl)-2-(1,3-dioxooctahydro-2H-spiro[2-aza-4,7-methanoisoindole-8,1′-cyclopropan]-2-yl)propanamide], for which the “FPRL1 (rel. eff.)” value is “(0.93)” and the EC50 is more than 5 µM.

As for `O=C(CN1C(=O)C2C(C1=O)C1C=CC2C12CC2)Nc1ccc(Br)cc1` (stereo not shown) [Compound 12, N-(4-bromophenyl)-2-(1,3-dioxo-1,3,3a,4,7,7a-hexahydro-2H-spiro[2-aza-4,7-methanoisoindole-8,1′-cyclopropan]-2-yl)acetamide], the “FPRL1 (rel. eff.)” value is “(0.91)” and the EC50 worked out at 0.812 µM.

In the case of `O=C(CN1C(=O)C2CC=CCC2C1=O)Nc1ccc(Br)cc1` (stereo not shown) [N-(4-bromophenyl)-1,3,3a,4,7,7a-hexahydro-1,3-dioxo-2H-isoindole-2-acetamide, reference compound], the “FPRL1 (rel. eff.)” value is “(0.98)” and the half-maximal effective concentration (EC50) was 0.395 µM.

In the case of `O=C(CN1C(=O)C2C3C=CC(C3)C2C1=O)Nc1ccc(Br)cc1` (stereo not shown) [N-(4-bromophenyl)-1,3,3a,4,7,7a-hexahydro-1,3-dioxo-4,7-methano-2H-isoindole-2-acetamide, reference compound], the “FPRL1 (rel. eff.)” value is “(0.90)” and the EC50 is 0.575 µM.
